From paper PMC11501026, “L-Arginine and asymmetric dimethylarginine (ADMA) transport across the mouse blood-brain and blood-CSF barriers: Evidence of saturable transport at both interfaces and CNS to blood efflux” (PLOS ONE, 2024)
Where “and” joins values, the source holds several entries; their conditions need not be identical. Equal entries are not always repeated. Structures can show the parent of a compound that is named as a salt. Where two headings read alike, the source gives them in different places.

Assays:
[1] = self-inhibition, in situ perfusion: [^3H]-ADMA with 100 μM unlabelled ADMA; assay type: in vivo, mouse; details: male, BALB/c, mouse, other: in situ brain perfusion, with unlabelled ADMA 100 µM, 10 mins, Balb/c ♂, 5ml/min
Procedure: (§1) Self-inhibition experiments were also performed. […] Cross-competition experiments were also performed.
(§2) The percentage change in the RTissue uptake values achieved in the absence or presence of an unlabelled inhibitor can be calculated by means of Eq 4.
(§3) %change=RTissue−RInhibition/RTissue×100 Eq 4
(§4) We define RInhibition as the RTissue uptake in the presence of an inhibitor in the artificial plasma.
(§5) A decrease in the uptake of radiolabelled solute in the presence of unlabelled inhibitor is indicative of a saturable influx transport system. Conversely, an increase in the uptake of radiolabelled solute in the presence of unlabelled inhibitor is indicative of a saturable efflux transport system.

[2] = system: [^3H]-ADMA transport across the blood-brain and blood-CSF barriers; test: as above; assay type: in vivo, mouse; details: 100 μM unlabelled ADMA; CSF; 10 minutes; not statistically significant, n of 2
Procedure: as §1, §2, §3, §4, §5

[3] = system: [^3H]-arginine transport across the blood-brain and blood-CSF barriers; test: cross-inhibition, in situ perfusion: [^3H]-arginine with 0.5–500 μM unlabelled ADMA; assay type: in vivo, mouse
Procedure: as §1, §2, §3, §4, §5
Concentrations of ADMA were specifically selected to mimic plasma concentrations under normal conditions (0.5 μM), pathophysiological conditions (3.0 μM), and then supraphysiological concentrations (10, 100 and 500 μM).

[4] = pH 7.4
Procedure: The lipophilicity of the radiolabelled test molecules was also measured by means of an octanol:saline partition coefficient. […] Centrifugation separated the hydrophobic (octanol) phase and hydrophilic (saline) phase and 100 μL samples in triplicate were taken for radioactive liquid scintillation counting on a Tricarb 2900TR liquid scintillation counter (Perkin-Elmer; Boston, MA, USA). The partition coefficient was calculated as the ratio of radioactivity in the octanol phase to the radioactivity in the aqueous phase.

CAT1 = details: HEK293 overexpressing CAT1; read-out: IC50, inhibition of CAT1-mediated transport of L-arginine; cited from earlier work
eNOS = details: read-out: inhibition constant (Ki); cited from earlier work
[5] = system: human dermal microvascular endothelial cells; details: cited from earlier work
[6] = in situ brain/choroid plexus perfusion: CNS uptake of [^3H]-arginine, [^3H]-ADMA and [^14C]-sucrose (multiple-time and single-time uptake analysis); details: 5ml/min; for [3H] ADMA and [14C] Sucrose uptake, frontal cortex: in mL/100 g; for uptake into caudate nucleus / uptake into choroid plexus / uptake into frontal cortex / uptake into occipital cortex: [3H] ADMA + [14C] Sucrose
Procedure: All animals used in procedures were adult male BALB/c mice (between 23 g and 25 g) sourced from Harlan Laboratories, Oxon, UK, unless otherwise stated.
Animals were weighed immediately before the administration of the anaesthetic to ensure correct dosage. Domitor® (medetomidine hydrochloride) and Vetalar® (ketamine) were both purchased from Harlan Laboratories (Cambridge, UK). All animals were terminally anaesthetised (2 mg/kg Domitor® and 150 mg/kg Vetalar® injected intraperitoneally), and a lack of self-righting and paw-withdrawal reflexes (as surrogate indicators of consciousness) thoroughly checked prior to and during all procedures. If needed, additional anaesthetic was administered via the same route. […] At the end of the in situ brain perfusion procedure the animal was killed by decapitated under non-recovery anaesthesia. Animals were heparinised with 100 units heparin (in 0.9% m/v NaCl(aq), Harlan Laboratories; Oxon, UK), administered via the intraperitoneal route prior to surgery.
The in situ brain/choroid plexus perfusion method is designed to directly perfuse the brain with artificial plasma via a cannula placed in the heart. Artificial plasma is prepared to mimic the ionic composition of blood, and transporter inhibitors can be added in known concentrations and delivered to the brain for defined periods of time.
The left ventricle of the heart was cannulated with a 25G x 10 mm butterfly-winged needle connected to the perfusion circuit. […] The right atrium of the heart was sectioned to allow outflow of the artificial plasma. […] Radiolabelled and unlabelled test molecules were infused into the inflowing artificial plasma for periods up to 30 minutes.
At the set perfusion time a CSF sample was taken by inserting a pulled glass micropipette connected to silicon tubing and a syringe into the cisterna magna. Gentle suction was applied, and CSF was withdrawn. Only clear CSF samples were processed and taken for analysis. Samples contaminated with blood were discarded. The animal was then decapitated and the brain removed. Specific brain samples including the circumventricular organs (CVOs) were taken using a Leica S4E L2 stereomicroscope (Leica; Buckinghamshire, UK). The brain samples included the frontal cortex, caudate nucleus, occipital cortex, hippocampus, hypothalamus, thalamus, pons and cerebellum. The CVOs included the choroid plexus, pituitary gland and pineal gland.
All samples (brain regions, capillary depletion brain homogenate, pellet and supernatant, CVOs, CSF and plasma samples) were solubilised in 0.5 mL tissue solubiliser (Solvable; Perkin-Elmer; Boston, MA, USA). After incubating the samples at room temperature for 48 h, 4 mL scintillation fluid (Lumasafe®; Perkin-Elmer; Boston, MA, USA) was added to each before vigorous vortexing.

[7] = 2.5 mins, Balb/c ♂, individual mouse
[8] = 30 mins, Balb/c ♂, individual mice
[9] = CONTROL, 10 mins, Balb/c ♂, mean

Question: What does the source list for `CN(C)C(N)=NCCC[C@H](N)C(=O)O` [ADMA, N^G,N^G-dimethylarginine dihydrochloride]?
Answer: Kp at 10 min, 62.5 nM ([1]; caudate nucleus, Difference (ADMA minus Sucrose), caudate nucleus, + 100uM un-labelled ADMA, mean): 0.0707; Kp at 10 min, 62.5 nM ([1]; caudate nucleus, [3H] ADMA + [14C] Sucrose + 100uM un-labelled ADMA, mean, read-out: uptake into caudate nucleus): 0.102; Kp at 10 min, 62.5 nM ([1]; choroid plexus, Difference (ADMA minus Sucrose), choroid plexus, + 100uM un-labelled ADMA, individual mice): 0.47; Kp at 10 min, 62.5 nM ([1]; choroid plexus, Difference (ADMA minus Sucrose), choroid plexus, + 100uM un-labelled ADMA, mean): 0.458; Kp at 10 min, 62.5 nM ([1]; choroid plexus, [3H] ADMA + [14C] Sucrose + 100uM un-labelled ADMA, individual mice, read-out: uptake into choroid plexus): 0.617; Kp at 10 min, 62.5 nM ([1]; choroid plexus, [3H] ADMA + [14C] Sucrose + 100uM un-labelled ADMA, mean, read-out: uptake into choroid plexus): 0.627; Kp at 10 min, 62.5 nM ([1]; frontal cortex, Difference (ADMA minus Sucrose), frontal cortex, + 100uM un-labelled ADMA, mean): 0.0696; Kp at 10 min, 62.5 nM ([1]; frontal cortex, [3H] ADMA + [14C] Sucrose + 100uM un-labelled ADMA, mean, read-out: uptake into frontal cortex): 0.101; Kp at 10 min, 62.5 nM ([1]; hippocampus, Difference (ADMA minus Sucrose), hippocampus, + 100uM un-labelled ADMA, mean): 0.056; Kp at 10 min, 62.5 nM ([1]; hippocampus, [3H] ADMA + [14C] Sucrose + 100uM un-labelled ADMA, mean, read-out: uptake into hippocampus): 0.0817; Kp at 10 min, 62.5 nM ([1]; occipital cortex, Difference (ADMA minus Sucrose), occipital cortex, + 100uM un-labelled ADMA, individual mice): 0.0613; Kp at 10 min, 62.5 nM ([1]; occipital cortex, Difference (ADMA minus Sucrose), occipital cortex, + 100uM un-labelled ADMA, mean): 0.0767; Kp at 10 min, 62.5 nM ([1]; occipital cortex, [3H] ADMA + [14C] Sucrose + 100uM un-labelled ADMA, individual mice, read-out: uptake into occipital cortex): 0.0898; Kp at 10 min, 62.5 nM ([1]; occipital cortex, [3H] ADMA + [14C] Sucrose + 100uM un-labelled ADMA, mean, read-out: uptake into occipital cortex): 0.107; Kp at 10 min, 62.5 nM ([1]; pineal gland, Difference (ADMA minus Sucrose), pineal gland, + 100uM un-labelled ADMA, mean): 3.33; Kp at 10 min, 62.5 nM ([1]; pineal gland, [3H] ADMA + [14C] Sucrose + 100uM un-labelled ADMA, mean, read-out: uptake into pineal gland): 3.5; reduction of [^3H]-ADMA uptake [2]: 89.1%; effect on [^3H]-arginine distribution ([3]; 100 μM unlabelled ADMA, any of the samples analysed, 10 minutes): did not inhibit; inhibition of [^3H]-arginine distribution ([3]; 500 μM unlabelled ADMA, choroid plexus, 10 minutes): 72.6%; inhibition of [^3H]-arginine uptake ([3]; 500 μM unlabelled ADMA, each of the brain regions, 10 minutes): approximately 70%; inhibition of [^3H]-arginine distribution ([3]; 500 μM unlabelled ADMA, supernatant (brain parenchyma), 10 minutes): 72.0%; inhibition of [^3H]-arginine distribution ([3]; 500 μM unlabelled ADMA, whole brain homogenate, 10 minutes): 65.1%; effect on transport of [^3H]-arginine ([…]) across the blood-CNS barriers ([3]; 0.5–100 μM unlabelled ADMA): insensitive to inhibition; effect on [^3H]-arginine distribution ([3]; any concentration of unlabelled ADMA (0.5–500 μM), CSF, pineal gland and pituitary gland, 10 minutes): not affected; effect on [^3H]-arginine distribution ([3]; up to 500 μM unlabelled ADMA, cerebral capillary endothelial cells (pellet), 10 minutes): not affected; octanol-saline partition coefficient [4]: 0.00226±0.00006; IC50 (CAT1): 758 µM; Ki (eNOS): 0.9 µM; effect on [^3H]-arginine transport ([5]; 100 μM unlabelled ADMA): significant inhibitory effect; effect on [^3H]-arginine transport ([5]; 2.5–10 μM ADMA): did not affect; Difference (ADMA minus Sucrose), choroid plexus [6, 7]: 0.4619 (2×) and 1.038 and 0.6787 and 0.7164; Difference (ADMA minus Sucrose), pineal gland [6, 7]: 0.0119 (2×) and 0.6055 and 0.1704 and 0.3775; [3H] ADMA and [14C] Sucrose uptake, choroid plexus [6, 7]: 1.245 and 0.8202 and 0.645 and 0.9198; [3H] ADMA and [14C] Sucrose uptake, frontal cortex [6, 7]: 0.1518 and 0.0919; Difference (ADMA minus Sucrose), caudate nucleus [6, 8]: 0.07868 and 0.2155 and 0.07884 and 0.04051 and 0.09553; Difference (ADMA minus Sucrose), choroid plexus [6, 8]: 0.4322 and 0.7701 and 0.2962 and 0.1895 and 0.3495; Difference (ADMA minus Sucrose), frontal cortex [6, 8]: 0.08507 and 0.2094 and 0.08399 and 0.04504 and 0.09711; Difference (ADMA minus Sucrose), occipital cortex [6, 8]: 0.09101 and 0.202 and 0.09058 and 0.04293 and 0.1128; Difference (ADMA minus Sucrose), pineal gland [6, 8]: 0.4361 and 1.061 and 0.1804 and 0.1286 and 0.2721; Difference (ADMA minus Sucrose), caudate nucleus ([6]; 30 mins, Balb/c ♂, mean): 0.1018; Difference (ADMA minus Sucrose), choroid plexus ([6]; 30 mins, Balb/c ♂, mean): 0.4075; Difference (ADMA minus Sucrose), frontal cortex ([6]; 30 mins, Balb/c ♂, mean): 0.1041; Difference (ADMA minus Sucrose), caudate nucleus [6, 9]: 0.2407; Difference (ADMA minus Sucrose), cerebellum [6, 9]: 0.1615; Difference (ADMA minus Sucrose), choroid plexus [6, 9]: 2.6086; Difference (ADMA minus Sucrose), frontal cortex [6, 9]: 0.2494; Difference (ADMA minus Sucrose), hippocampus [6, 9]: 0.2174; Difference (ADMA minus Sucrose), hypothalamus [6, 9]: 0.3042; Difference (ADMA minus Sucrose), occipital cortex [6, 9]: 0.2252; Difference (ADMA minus Sucrose), pituitary gland [6, 9]: 1.829; Difference (ADMA minus Sucrose), pons [6, 9]: 0.2464; Difference (ADMA minus Sucrose), thalamus [6, 9]: 0.21; [3H] ADMA and [14C] Sucrose uptake, caudate nucleus [6, 9]: 0.2609; [3H] ADMA and [14C] Sucrose uptake, cerebellum [6, 9]: 0.1856; [3H] ADMA and [14C] Sucrose uptake, choroid plexus [6, 9]: 2.881; [3H] ADMA and [14C] Sucrose uptake, hippocampus [6, 9]: 0.2336; [3H] ADMA and [14C] Sucrose uptake, hypothalamus [6, 9]: 0.341; [3H] ADMA and [14C] Sucrose uptake, occipital cortex [6, 9]: 0.2471; [3H] ADMA and [14C] Sucrose uptake, pituitary gland [6, 9]: 1.982; [3H] ADMA and [14C] Sucrose uptake, pons [6, 9]: 0.2825; [3H] ADMA and [14C] Sucrose uptake, thalamus [6, 9]: 0.2291; [3H] ADMA and [14C] Sucrose uptake, frontal cortex [6, 9]: 0.273; uptake into caudate nucleus [6, 8]: 0.09268 and 0.2487 and 0.1281 and 0.07499 and 0.1274; uptake into choroid plexus [6, 8]: 0.5413 and 0.9894 and 0.4672 and 0.3444 and 0.47; uptake into frontal cortex [6, 8]: 0.1003 and 0.2556 and 0.1339 and 0.07655 and 0.1326; uptake into occipital cortex [6, 8]: 0.1057 and 0.2389 and 0.1237 and 0.07486 and 0.1517; uptake into caudate nucleus ([6]; 30 mins, Balb/c ♂, mean): 0.1344; uptake into choroid plexus ([6]; 30 mins, Balb/c ♂, mean): 0.5624; uptake into frontal cortex ([6]; 30 mins, Balb/c ♂, mean): 0.1398; uptake into occipital cortex ([6]; 30 mins, Balb/c ♂, mean): 0.139; Kp at […] ([6]; male, BALB/c, mouse, CSF, Difference (ADMA minus Sucrose), 2.5 mins, mean): 0.034
